Reference: patent EP1207391A1, “METHOD FOR SCREENING TARGETING DDS PREPARATION” (Ajinomoto Co., Inc., priority 1999, dated 2001)
Values joined by “and” are separate entries in the source; they are usually repeats but may differ in a detail not shown here. Equal entries are not always repeated. Where two headings read alike, the source gives them in different places.

How the values were obtained:
[1] = biological target: T1, asialoglycoprotein receptor (Mus musculus, UniProt P24721+P34927); test: Screening of ligand (2): kint and koff without labeling the ligand (Example 18); format: cell-based; details: for kint: 37°C for 10 minutes, 125I-ASOR read-out
T1 construct: Mouse primary cultured hepatocytes, which were cultured for overnight on the 12 well plate, isolated by collagenase perfusion; endogenous in cells; host or cells: mouse (C57BL/6) primary hepatocytes cultured overnight on 12-well plates
T1 sequence (P34927 1-284): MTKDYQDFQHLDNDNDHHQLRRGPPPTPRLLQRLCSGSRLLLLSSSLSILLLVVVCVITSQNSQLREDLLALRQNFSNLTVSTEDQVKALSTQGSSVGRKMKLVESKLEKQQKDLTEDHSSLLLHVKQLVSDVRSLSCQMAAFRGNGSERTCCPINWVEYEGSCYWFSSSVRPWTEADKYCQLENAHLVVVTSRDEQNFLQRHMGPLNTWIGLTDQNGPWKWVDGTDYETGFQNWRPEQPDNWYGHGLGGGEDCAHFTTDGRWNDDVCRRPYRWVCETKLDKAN
T1 sequence (P24721 1-301): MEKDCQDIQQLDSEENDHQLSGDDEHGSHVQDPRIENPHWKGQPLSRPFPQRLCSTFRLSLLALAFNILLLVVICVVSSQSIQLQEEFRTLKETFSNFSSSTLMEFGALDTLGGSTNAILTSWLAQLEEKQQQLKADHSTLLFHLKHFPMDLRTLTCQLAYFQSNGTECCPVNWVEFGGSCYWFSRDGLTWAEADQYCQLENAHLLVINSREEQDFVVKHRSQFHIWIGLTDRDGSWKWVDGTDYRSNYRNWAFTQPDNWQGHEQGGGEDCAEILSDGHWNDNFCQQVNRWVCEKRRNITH
Protocol: A method for screening ligand having high ability to avoid the internalization without radio labeling each ligand to obtain kint and koff and to calculate simply the ability to avoid the internalization (= kint / koff) was performed as follows. […] Concretely, mouse primary cultured hepatocytes, which were isolated by the method of Berry et al. collagenase perfusion method shown in example and cultured overnight on 12 well plate, was washed twice with D-MEM (pH 7.4) (each 2 ml) containing D-PBS, 0.1% BSA and 20 mM Hepes. The same D-MEM medium (1 ml) was added thereto and preincubated at 37°C for 60 minutes. Cooled D-PBS (pH 5.0) containing 10 mM EDTA was added to the cells, allowed to stand under ice cooling for 4 minutes and washed twice with cooled D-PBS (2 ml). Using the thus prepared plate, experiments for calculating kint and koff were performed. […] Separately, the system without addition of the ligand was incubated for 0 minute and for 10 minutes at 37°C. After the necessary time has passed, immediately the plate was placed on the ice bath, added the cooled D-PBS (pH 5.0) containing 10 mM EDTA, allowed to stand under ice cooling for 4 minutes, and washed 4 times with cooled D-PBS (1 ml). D-MEM solution (0.4 ml) of 0.6 nM ^125I-ASOR was added to the cells in each well on the ice bath, and allowed to stand at 4°C for 60 minutes. […] Amount of receptor remained on the surface (ligand bound or free) other than the integration by endocytosis was calculated by measuring the cell lysis with ã-counter (mean of 3 repeats). The obtained amount of ratio activity was all divided by the concentration of the added solution (cpm/μl) to convert the distribution volume (μl/well). […] Separately, with regard to the system without ligand, only the said D-MEM medium is added 0.4 ml and incubated. […] The cell lytic solution was measured using γ-counter to calculate amount of the dissociated cold ligand once bound with the receptor. The amount of obtained radio activity is all divided by the concentration of the added solution (cpm/μl) and converted to the distribution volume (μl/well). With regards to the ligand non-added system and the ligand added system, the binding rate for 15 minutes is calculated by subtracting the distribution volume in the incubation for 5 minutes from the distribution volume in the incubation for 20 minutes. The binding rate without addition of the ligand is set as 100 and the binding rate of each ligand is converted into the percentage to the control (% of control).

[2] = biological target: T1, asialoglycoprotein receptor; test: Screening of ligand (1): bound 125I-ASOR after incubation of hepatocytes with unlabeled ligand (Example 17); format: cell-based; details: bound counts of 125I-ASOR after 10 minutes at 37°C with ligand at 100 - 2000 times of Kd; mean of 3
Protocol: A method for screening ligand having high ability to avoid the internalization without radio labeling each ligand and without calculation of kint and koff, was performed as follows.
Concretely, mouse primary cultured hepatocytes, which were isolated by a method of Berry et al. collagenase perfusion method shown in example and cultured overnight on 12 well plate, was washed twice with D-MEM (pH 7.4) (each 2 ml) containing D-PBS, 0.1% BSA and 20 mM Hepes. The same D-MEM medium (1 ml) was added thereto and preincubated at 37°C for 60 minutes. Cooled D-PBS (pH 5.0) containing 10 mM EDTA was added to the cells, allowed to stand under ice cooling for 4 minutes and washed twice with cooled D-PBS (2 ml). […] After 10 minutes, the plate was placed on the ice bath, added the cooled D-PBS (pH 5.0) containing 10 mM EDTA, allowed to stand under ice cooling for 4 minutes, and washed 4 times with cooled D-PBS (1 ml). D-MEM solution (0.4 ml) of 0.6 nM ^125I-ASOR was added to the cells in each well on the ice bath, and allowed to stand at 4°C for 60 minutes. On the ice bath, they were washed 4 times with cooled D-PBS (1 ml), allowed to stand at -80°C for more than 30 minutes, added 0.1 N sodium hydroxide (0.5 ml), and incubated at 37°C formore than 1 hour. Amount of receptor remained on the surface (ligand bound or free) other than the internalization by endocytosis was calculated by measuring the cell lysis with ã-counter (mean of 3 repeats).

[3] = biological target: T1, asialoglycoprotein receptor; test: Binding inhibition experiment 2 of 125I-ASOR on mouse primary cultured hepatocytes (Example 9); details: read-out: Ki value, 0.6 nM 125I-ASOR, 4°C for 60 minutes
Protocol: In the binding inhibition experiment according to the method of Biessen, et al. performed in example 8, a concentration of added ^125I-ASOR was 22 nM. Kd value of ASOR is approximately several nM and the concentration of added ASOR is higher that the actual Kd value, consequently, in the experiment in example 8, the binding inhibition by each ligand is difficult to generate and the Kd value is estimated too high. In order to evaluate newly synthesized ligand[(Gal)3(6) and (Gal)2(9)], calculation of more exact Ki value is necessary.
Mouse primary cultured hepatocytes, which were cultured for overnight on the 12 well plate, isolated by collagenase perfusion described in examples of Berry, et al., were washed twice with D-MEM (pH 7.4) (each 2 ml) containing D-PBS, 0.1% BSA and 20 mM Hepes, added said D-MEM medium (1 ml), and preincubated at 37°C for 60 minutes. The cooled D-PBS (pH 5.0) containing 10 mM EDTA was added to the cells, allowed to stand under ice-cooling for 4 minutes, and washed twice with cooled D-PBS (2 ml). […] The cells were washed, on the ice bath, 4 times with cooled D-PBS (1 ml), allowed to leave at -80°C for more than 30 minutes, added 0.1 N aqueous sodium hydroxide (0.5 ml), incubated at 37°C for more than 1 hour, and measured the cell lytic solution by using γ-counter to calculate amount of bound ^125I-ASOR on the surface of cells. […]

[4] = biological target: T2, asialoglycoprotein receptor (ASGP-R) (Mus musculus, UniProt P24721+P34927); test: Binding inhibition experiment of 125I-ASOR to mouse liver cells (Example 8, method of Biessen et al.); details: for Ki: 4°C
T2 construct: The liver parenchymal cells (in 4 ml Falcon tube, 0.6 - 1.0 × 10^6/0.5 ml in ice bath); endogenous in cells; host or cells: freshly isolated mouse liver parenchymal cells (C57BL/6) in suspension
T2 sequence (P34927 1-284): T1 sequence (P34927 1-284)
T2 sequence (P24721 1-301): T1 sequence (P24721 1-301)
Protocol: Among these ligands, we have first examined two types of ligands for asialoglycoprotein receptor on hepatocytes, i.e. the three-branched galactose ligand [(Gal)3] of the following formula: [drawing 5] and the three-branched N-acetylgalactosamine ligand [(GalNAc)3] of the following formula: [drawing 6] and their binding forms to IL-2. At first, the Kd value, which is an index of the binding affinity to ASGP-R, was calculated. Table 1,
Binding inhibition experiments of ASOR to mouse liver cells using each ligand were performed according to a method of Biessen, et al. [Biessen, E.A.L. et al., J. Biol. Chem., 271(45): 28024-28030 (1996)].
The liver parenchymal cells (in 4 ml Falcon tube, 0.6 - 1.0 × 10^6/0.5 ml in ice bath) was added to D-PBS containing 2% BSA. Inhibitor 0.25 ml prepared for various concentration with D-PBS containing 2% BSA was added thereto. ^125I-ASOR 0.25 ml (22 nM) in D-PBS containing 2% BSA was added therein and stirred gently at 4°C for 2 hours.
The mixture was centrifuged at 50G for 1 minute, discarded the supernatant solution, added D-PBS containing 2% BSA and stirred, then again centrifuged at 50G for 1 minute, and discarded the supernatant medium. This procedure was repeated again and the medium was measured by γ-counter.
Thereafter, 0.1 N NaOH containing 10% SDS 1 ml was added thereto, and the protein concentration was measured by Lowry method using the protein assay kit (Biorad Inc.).
As a result, depending on the increase in the added concentration of (GalNAc)3 and (Gal)3, […] was dissociated with almost monophasic manner. Data of dissociation obtained by three repeated experiments were analyzed using non-linear single site model to calculate the binding inhibition constant (Ki).
Large differences were observed between two types of the ligand.

SMILES	koff ([1]; unlabeled ligand, 4°C, 125I-ASOR binding rate for 15 minutes, read-out: koff (converted)) [s⁻¹]	kint ([1]; unlabeled ligand) [min⁻¹]	Bound [2] [cpm]	koff [1] [s⁻¹]	Ki [3] [µM]	affinity relative to (GalNAc)3 ([4]; ratio of affinities from Kd values)	Ki ([4]; read-out: Binding inhibitory constant (Ki) Ave., average of three repeated experiments, 125I-ASOR 22 nM)	Ki ([4]; read-out: Binding inhibitory constant (Ki), individual experiments 1-3, binding of 125I-ASOR (22 nM) to mouse hepatocytes)	Kd ([4]; read-out: Kd value, calculated from the Ki of Table 1) [µM]
NCCCCCC(=O)N[C@@H](CCC(=O)NCCOCCOCCO[C@@H]1O[C@H](CO)[C@H](O)[C@H](O)[C@H]1O)C(=O)NCCOCCOCCO[C@@H]1O[C@H](CO)[C@H](O)[C@H](O)[C@H]1O (atropisomer, axis not shown) [(Gal)2(9)]	0.000395	0.0605	1670						
NCCCCCC(=O)NC(CCC(=O)NCCOCCO[C@@H]1O[C@H](CO)[C@H](O)[C@H](O)[C@H]1O)C(=O)NC(CCC(=O)NCCOCCO[C@@H]1O[C@H](CO)[C@H](O)[C@H](O)[C@H]1O)C(=O)NCCOCCO[C@@H]1O[C@H](CO)[C@H](O)[C@H](O)[C@H]1O (stereo partly drawn) [(Gal)3(6)]		0.0417	2015	0.00113	0.369				
NCCCCCC(=O)NC(CCC(=O)NCCOCCOCCO[C@@H]1O[C@H](CO)[C@H](O)[C@H](O)[C@H]1O)C(=O)NC(CCC(=O)NCCOCCOCCO[C@@H]1O[C@H](CO)[C@H](O)[C@H](O)[C@H]1O)C(=O)NCCOCCOCCO[C@@H]1O[C@H](CO)[C@H](O)[C@H](O)[C@H]1O (stereo partly drawn) [(Gal)3, three-branched galactose ligand]		0.054	1784	0.000943	0.157	approximately 1/200	350 µM and 354 µM	681 µM and 351 µM and 292 µM	354
